Converted amounts (≈) assume the structure as drawn. The source made the active and inactive calls. The calls are words filed in the database; no cut-off is given here.

The values that follow come from ChEMBL document CHEMBL5154842, “Unique Carbazole-Oxadiazole Derivatives as New Potential Antibiotics for Combating Gram-Positive and -Negative Bacteria” (J Med Chem, 2022).

For series [1], the system named is Staphylococcus aureus. Put plainly: Antibacterial activity against Staphylococcus aureus 25923 assessed as inhibition of bacterial growth incubated for 24 hrs by CLSI protocol based two fold serial dilution method. It is filed as functional.
Series [2] has as its system Staphylococcus aureus. Put plainly: Antibacterial activity against Staphylococcus aureus CMCC (B) 26001 assessed as inhibition of bacterial growth incubated for 24 hrs by CLSI protocol based two fold serial dilution method. It is filed as functional.
The subject of the next series is HEK-293T. Put plainly: Cytotoxicity against human HEK293T cells assessed as cell viability at 0.5 to 64 ug/ml incubated for 24 hrs by MTT assay. Conditions: dose 0.5-64 µg/ml. It is filed as toxicity, cell-based.
The subject of series [3] is Staphylococcus aureus. Put plainly: Antibacterial activity against methicillin-resistant Staphylococcus aureus N315 assessed as inhibition of bacterial growth at 0.5 to 16 ug/ml measured after 24 hrs by microplate reader assay. It is filed as functional, organism-based. As to conditions: dose 0.5-16 µg/ml.
Series [4] concerns Escherichia coli. The experiment in a line: Antibacterial activity against Escherichia coli assessed as inhibition of bacterial growth incubated for 24 hrs by CLSI protocol based two fold serial dilution method. It is filed as functional.
The subject of series [5] is Staphylococcus aureus. Put plainly: Antibacterial activity against methicillin-resistant Staphylococcus aureus N315 assessed as inhibition of bacterial growth at 0.25 to 64 ug/ml incubated for 24 hrs by Alamar blue assay. It is filed as functional, organism-based. Conditions: dose 0.25-64 µg/ml. In general terms: The colour change of resazurin is a common sign of viable cells or microbes.

A short description of series [6]: Toxicity against Balb/c mouse assessed as body weight at 100 mg/kg, iv administered every 2 days measured after 1 week. It is filed as organism-based. As to conditions: in vivo, 168 h, time 1 weeks.
Series [7] deals with Staphylococcus aureus. Put plainly: Antibacterial activity against Staphylococcus aureus assessed as inhibition of bacterial growth incubated for 24 hrs by CLSI protocol based two fold serial dilution method. It is filed as functional.
The test system of series [8] is Staphylococcus aureus. Put plainly: Antibacterial activity against methicillin-resistant Staphylococcus aureus N315 assessed as increase in bactericidal effect at 2 to 8 ug/ml measured after 24 hrs by microplate reader assay. It is filed as functional, organism-based. As to conditions: dose 2-8 µg/ml.
The subject of series [9] is Staphylococcus aureus. Put plainly: Antibacterial activity against Staphylococcus aureus ATCC 6583 assessed as inhibition of bacterial growth incubated for 24 hrs by CLSI protocol based two fold serial dilution method. It is filed as functional.
Series [10] has as its system Cell membrane. The experiment in a line: Induction of cell membrane disruption in methicillin-resistant Staphylococcus aureus N315 assessed as increase in protein leakage at 0.5 to 6 ug/ml incubated under agitation condition by Bradford assay. Conditions: dose 0.5-6 µg/ml.
In series [11] the test system is Staphylococcus aureus. Put plainly: Antibacterial activity against methicillin-resistant Staphylococcus aureus N315 assessed as inhibition of bacterial growth incubated for 24 hrs by CLSI protocol based two fold serial dilution method. It is filed as functional.
The subject of series [12] is Staphylococcus aureus. Put plainly: Antibacterial activity against Staphylococcus aureus ATCC 12600 assessed as inhibition of bacterial growth incubated for 24 hrs by CLSI protocol based two fold serial dilution method. It is filed as functional.
The test system of the next series is Acinetobacter baumannii. The experiment in a line: Antibacterial activity against Acinetobacter baumannii assessed as inhibition of bacterial growth incubated for 24 hrs by CLSI protocol based two fold serial dilution method. It is filed as functional.
Series [13] concerns Pseudomonas aeruginosa. Put plainly: Antibacterial activity against Pseudomonas aeruginosa ATCC 27853 assessed as inhibition of bacterial growth incubated for 24 hrs by CLSI protocol based two fold serial dilution method. It is filed as functional.
The subject of the next series is Enterococcus faecalis. Put plainly: Antibacterial activity against Enterococcus faecalis assessed as inhibition of bacterial growth incubated for 24 hrs by CLSI protocol based two fold serial dilution method. It is filed as functional.
The next series concerns Klebsiella pneumoniae. Put plainly: Antibacterial activity against Klebsiella pneumonia assessed as inhibition of bacterial growth incubated for 24 hrs by CLSI protocol based two fold serial dilution method. It is filed as functional.
The test system of series [14] is Staphylococcus aureus. Put plainly: Antibacterial activity against Staphylococcus aureus 29213 assessed as inhibition of bacterial growth incubated for 24 hrs by CLSI protocol based two fold serial dilution method. It is filed as functional.
The test system of series [15] is Staphylococcus aureus. The experiment in a line: Antibacterial activity against Staphylococcus aureus CMCC (B) 26003 assessed as inhibition of bacterial growth incubated for 24 hrs by CLSI protocol based two fold serial dilution method. It is filed as functional.
Series [16] deals with Pseudomonas aeruginosa. The experiment in a line: Antibacterial activity against Pseudomonas aeruginosa assessed as inhibition of bacterial growth incubated for 24 hrs by CLSI protocol based two fold serial dilution method. It is filed as functional.
Series [17] has as its system Cell membrane. The experiment in a line: Induction of inner membrane permeabilization in methicillin-resistant Staphylococcus aureus N315 assessed as increase in PI uptake by measuring increase in fluorescence intensity at 1 to 8 ug/ml incubated for 30 mins by calcein-AM/PI staining based fluorescence microscopic analysis. Conditions: dose 1-8 µg/ml, DDE = dose-dependent effect.

Another series deals with HeLa. Put plainly: Cytotoxicity against human HeLa cells assessed as cell viability at 0.5 to 64 ug/ml incubated for 24 hrs by MTT assay. It is filed as toxicity, cell-based. Conditions: dose 0.5-64 µg/ml.
For series [18], the system named is Escherichia coli. The experiment in a line: Antibacterial activity against Escherichia coli 25922 assessed as inhibition of bacterial growth incubated for 24 hrs by CLSI protocol based two fold serial dilution method. It is filed as functional.
The test system of series [19] is Cell membrane. The experiment in a line: Induction of cell membrane disruption in methicillin-resistant Staphylococcus aureus N315 assessed as increase in nucleotides leakage at 0.5 to 6 ug/ml incubated under agitation condition by UV absorption based analysis. It is filed as subcellular. As to conditions: dose 0.5-6 µg/ml.
A short description of series [20]: Hemolytic activity in human RBC assessed as hemolysis at 1 to 32 ug/ml measured after 60 mins by microplate reader assay relative to control. It is filed as toxicity, cell-based, Erythrocyte. Conditions: red blood cells (erythrocytes), at 1 to 32 µg/mL, dose 1-32 µg/ml, read-out: Activity.
Series [21] concerns Staphylococcus aureus. The experiment in a line: Antibacterial activity against methicillin-resistant Staphylococcus aureus ATCC 43300 assessed as inhibition of bacterial growth incubated for 24 hrs by CLSI protocol based two fold serial dilution method. It is filed as functional.
The next series has as its system Erythrocyte. The experiment in a line: Hemolytic activity in human RBC assessed as hemolysis rate at 1 to 32 ug/ml measured after 60 mins by microplate reader assay. It is filed as toxicity, cell-based. As to conditions: 1 h, dose 1-32 µg/ml.
In series [22] the test system is Staphylococcus aureus. The experiment in a line: Antibacterial activity against methicillin-resistant Staphylococcus aureus N315 assessed as change in susceptibility at sub-MIC treated over 9 serial passages measured after 9 days by resistance development assay. It is filed as functional, organism-based. As to conditions: time 9.0 day.
The test system of series [23] is Staphylococcus aureus. The experiment in a line: Antibacterial activity against methicillin-resistant Staphylococcus aureus N315 assessed as increase in germicidal effect at 4 ug/ml measured after 7 hrs by microplate reader assay. It is filed as functional, organism-based. As to conditions: dose 4.0 µg/ml.

In the case of `C=CCOc1cccc2c1c1ccccc1n2Cc1nnc(S)o1`, the MIC amounted to 8 µg/mL (≈ 23.7 µM) in the series with Staphylococcus aureus [1]; 0.25 µg/mL (≈ 0.741 µM) with Staphylococcus aureus [2]; 4 µg/mL (≈ 11.9 µM) in the series with Escherichia coli [4]; 256 µg/mL (≈ 759 µM) with Staphylococcus aureus [7]; 0.25 µg/mL (≈ 0.741 µM) with Staphylococcus aureus [9]; 2 µg/mL (≈ 5.93 µM) with Staphylococcus aureus [11]. Besides, the MIC in the series on Staphylococcus aureus [12] was 0.25 µg/mL (≈ 0.741 µM); in the series on Acinetobacter baumannii it was 0.25 µg/mL (≈ 0.741 µM); with Pseudomonas aeruginosa [13] it was 4 µg/mL (≈ 11.9 µM); in the series with Enterococcus faecalis, 1 µg/mL (≈ 2.96 µM); with Klebsiella pneumoniae, 4 µg/mL (≈ 11.9 µM); in the series on Staphylococcus aureus [14], 0.25 µg/mL (≈ 0.741 µM). The minimum inhibitory concentration (MIC) was found to be 0.25 µg/mL (≈ 0.741 µM) with Staphylococcus aureus [15], 128 µg/mL (≈ 379 µM) with Pseudomonas aeruginosa [16], 0.25 µg/mL (≈ 0.741 µM) in the series on Escherichia coli [18] and 0.25 µg/mL (≈ 0.741 µM) in the series on Staphylococcus aureus [21]. Also, the Activity result in the series with HEK-293T was “Non-Toxic”; in series [6] it was “Non-Toxic”; in the series on Cell membrane [17] it was “Dde”; in the series with HeLa it was “Non-Toxic”. Also, the outcome in the series with Staphylococcus aureus [3], in the series with Staphylococcus aureus [5], in the series on Staphylococcus aureus [8], in the series with Cell membrane [10] and in the series on Cell membrane [19] was Active. Further, in series [20], the hemolysis at 1 h is below 3%.

Turning to `Sc1nnc(Cn2c3ccccc3c3c(OCC4CCCCC4)cccc32)o1`, the MIC amounted to 4 µg/mL (≈ 10.2 µM) in the series with Staphylococcus aureus [1]; 1 µg/mL (≈ 2.54 µM) in the series on Escherichia coli [4]; 256 µg/mL (≈ 651 µM) in the series on Staphylococcus aureus [7]; 0.25 µg/mL (≈ 0.635 µM) in the series on Staphylococcus aureus [11]; 0.5 µg/mL (≈ 1.27 µM) with Acinetobacter baumannii; 4 µg/mL (≈ 10.2 µM) in the series on Pseudomonas aeruginosa [13]. The MIC was determined as 4 µg/mL (≈ 10.2 µM) in the series on Enterococcus faecalis; 4 µg/mL (≈ 10.2 µM) with Klebsiella pneumoniae; 4 µg/mL (≈ 10.2 µM) in the series on Staphylococcus aureus [14]; 128 µg/mL (≈ 325 µM) in the series with Pseudomonas aeruginosa [16]; 0.25 µg/mL (≈ 0.635 µM) in the series on Escherichia coli [18]. Besides, the outcome in the series with Staphylococcus aureus [3], in the series with Staphylococcus aureus [5], with Staphylococcus aureus [22] and in the series with Staphylococcus aureus [23] was Active. Further, the Activity result with Erythrocyte is recorded as “Toxic”.

One may read the MIC as the lowest concentration found to suppress growth.
